Calls of active or inactive are those of the source.
Tests used:
Protein Tat = Protein Tat (Human immunodeficiency virus type 1 group M subtype B (isolate HXB2)(HIV-1), UniProt P04608); format: functional;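 further: tat binding to TAR RNA read out by fluorescence polarization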
[1] = biological target: Glutathione-S-transferase (Schistosoma japonicum, UniProt Q26513); assay: biotin-GST/anti-GST TR-FRET signal inhibitors, dose response, artefact control for Vif-APOBEC3G degradation inhibitor project, biochemical (AID 1117362); format: functional
[2] = Vero cell cytotoxicity, dose response, cytotoxicity control for Vif-APOBEC3G degradation inhibitor project, Vero cells (AID 1117358); format: functional; conditions: Human immunodeficiency virus 1, Vero
[3] = system: Streptococcus sp. 'group A'; assay: growth inhibition of control SK(-) GAS strain, dose response, counter-screen for streptokinase expression inhibitor project, luminescence, kanamycin, BacTiterGlo, confirmation (AID 1900); format: functional, organism-based
Streptokinase A = biological target: T1, Streptokinase A (Streptococcus pyogenes serotype M1, UniProt P10520); assay: S. pyogenes streptokinase expression inhibitors, potency, dose response, plasminogen activation absorbance, OD405 (AID 1914); format: functional, Streptococcus pyogenes M1 GAS;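 further: secreted streptokinase activity via plasminogen activation per viability signal from cell pellet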
T1 sequence (P10520 whole entry): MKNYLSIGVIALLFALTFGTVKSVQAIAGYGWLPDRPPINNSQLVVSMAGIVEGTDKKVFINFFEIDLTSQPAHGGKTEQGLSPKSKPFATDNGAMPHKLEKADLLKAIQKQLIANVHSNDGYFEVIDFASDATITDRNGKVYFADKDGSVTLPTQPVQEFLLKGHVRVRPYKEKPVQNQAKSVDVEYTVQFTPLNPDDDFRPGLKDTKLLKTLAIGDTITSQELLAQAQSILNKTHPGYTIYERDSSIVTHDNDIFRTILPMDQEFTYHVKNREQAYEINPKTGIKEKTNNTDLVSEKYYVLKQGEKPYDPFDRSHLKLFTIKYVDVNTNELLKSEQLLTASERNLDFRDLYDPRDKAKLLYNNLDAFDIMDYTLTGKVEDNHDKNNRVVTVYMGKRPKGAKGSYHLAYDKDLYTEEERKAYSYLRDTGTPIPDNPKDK

Streptococcus = assay: Group A Streptococcus viability loss, dose response, counter-screen for streptokinase expression inhibitor project, luminescence, BacTiterGlo (AID 1915); format: functional, organism-based;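 further: potency for reduction of bacterial viability or growth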
[4] = THP-1 cell cytotoxicity, dose response, cytotoxicity control for non-replicating M. tuberculosis project (AID 489025); format: functional
[5] = Vero E6 cell cytotoxicity, dose response, cytotoxicity control for non-replicating M. tuberculosis project, secondary assay (AID 492998); format: functional, VeroE6; conditions: Vero C1008
cells [6] = format: functional
INS1 = assay: beta cell apoptosis inhibitors, cytokine rescue, dose response, luminescence, retest (AID 449756); format: functional, cell-based; conditions: Rattus norvegicus;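 further: cell death triggered by IL-1 beta plus TNF-alpha plus IFN-gamma mixture; protective hits raise ATP signal compared with cytokine alone wells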
[7] = Artemis endonuclease inhibitor potency, dose response, biochemical, fluorescence intensity (AID 720701); format: functional;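 further: Artemis endonuclease enzyme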
[8] = cytotoxicity in HPDE-C7 cells, cell-based, fluorescence, HTS (AID 430); format: functional; conditions: Homo sapiens
[9] = cytotoxicity in KRAS-transformed pancreatic duct cells, primary screen, cell-based, fluorescence, HTS (AID 431); format: functional; conditions: Homo sapiens;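 further: cell line used: HPDE-C7K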
NADPH oxidase 1 = biological target: T2, NADPH oxidase 1 (Homo sapiens, UniProt Q9Y5S8); format: functional, cell-based;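 further: Cell-based assay with luminescence read-out, IC50 derived from inhibitor dose-response curves; intracellular ROS from endogenous NOX1 in intact HT29 colon cancer cells; potency of inhibitors that lower the ROS luminescence signal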
T2 sequence (Q9Y5S8 whole entry): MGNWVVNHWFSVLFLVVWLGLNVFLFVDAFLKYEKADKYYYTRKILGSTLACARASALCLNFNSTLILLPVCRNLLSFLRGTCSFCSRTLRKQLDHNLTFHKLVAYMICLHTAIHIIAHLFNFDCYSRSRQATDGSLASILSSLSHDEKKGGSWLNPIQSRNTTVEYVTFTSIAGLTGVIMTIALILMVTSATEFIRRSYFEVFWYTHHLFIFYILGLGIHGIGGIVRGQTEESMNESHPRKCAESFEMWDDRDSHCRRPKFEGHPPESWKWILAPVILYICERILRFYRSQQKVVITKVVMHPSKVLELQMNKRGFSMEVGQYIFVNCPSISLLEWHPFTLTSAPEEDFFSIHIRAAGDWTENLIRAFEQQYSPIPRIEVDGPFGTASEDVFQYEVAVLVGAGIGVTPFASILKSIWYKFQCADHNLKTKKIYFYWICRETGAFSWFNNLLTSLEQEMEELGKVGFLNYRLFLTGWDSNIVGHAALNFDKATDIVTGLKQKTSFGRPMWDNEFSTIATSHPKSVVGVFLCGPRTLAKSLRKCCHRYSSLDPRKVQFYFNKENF

Bcl-2-related protein A1 = biological target: T3, Bcl-2-related protein A1 (Mus musculus, UniProt Q07440); format: functional;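 further: confirmatory dose–response counterscreen on Bfl-1, used to check hits from a UBC13 polyubiquitin inhibitor campaign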
T3 sequence (Q07440 whole entry): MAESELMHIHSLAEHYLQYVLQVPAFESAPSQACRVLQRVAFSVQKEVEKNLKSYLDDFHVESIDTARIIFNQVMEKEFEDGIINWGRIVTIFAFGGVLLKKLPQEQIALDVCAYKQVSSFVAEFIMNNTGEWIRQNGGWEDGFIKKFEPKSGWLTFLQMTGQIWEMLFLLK

[10] = biological target: T4, Ubiquitin-conjugating enzyme E2 N (Homo sapiens, UniProt P61088); format: functional
T4 sequence (P61088 whole entry): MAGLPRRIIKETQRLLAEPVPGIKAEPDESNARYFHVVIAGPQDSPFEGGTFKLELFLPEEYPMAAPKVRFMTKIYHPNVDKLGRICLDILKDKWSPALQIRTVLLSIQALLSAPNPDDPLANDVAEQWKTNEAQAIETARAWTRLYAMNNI

[11] = biological target: T4, Ubiquitin-conjugating enzyme E2 N; format: functional; remark: listed apart in the source
[12] = half-maximal inhibitory concentration for glucagon-like peptide-1 release, STC-1 cell line, dose-response (AID 1117345); format: functional, cell-based
[13] = Glucagon-like peptide 1 release potency, NCI-H716 cell line, dose-response, half-maximal inhibitory concentration (AID 1117344); format: functional, cell-based
[14] = P. falciparum 3D7-ScDHODH growth inhibitors, dose response, SYBR Green, dry powder samples (AID 1159570); format: functional, cell-based;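 further: parasite growth measured after 72 hours of compound exposure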
[15] = HepG2 cell cytotoxicity, dose response, cytotoxicity control, plate reader, dry powder samples (AID 1159569); format: functional, cell-based;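 further: inhibitor potency with signal falling toward the positive control level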
[16] = P. falciparum Dd2 growth inhibitors, dose response, SYBR Green, cherry-picked samples (AID 1159567); format: functional, cell-based
[17] = P. falciparum Dd2 growth inhibitors, dose response, SYBR Green, dry powder samples (AID 1159566); format: functional, cell-based;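 further: potency for growth inhibition with lower SYBR green DNA signal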
[18] = HepG2 cell cytotoxicity, dose response, cytotoxicity control, cherry-picked samples (AID 1159577); format: functional, cell-based
[19] = P. falciparum ATP4 D1247Y mutant growth inhibitors, dose response, NITD609-resistant line, SYBR Green, dry powder (AID 1159571); format: functional, cell-based;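 further: parasites synchronized at ring stage by sorbitol before testing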
Paired box protein Pax-8 = Paired box protein Pax-8 (Homo sapiens, UniProt Q06710); assay: inhibitors of PAX8-driven TPO luciferase reporter, dose response, RMG-I cells, cherry-pick (AID 687027); format: functional, cell-based;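 further: luciferase reporter driven by Pax8 target thyroperoxidase promoter measured by SteadyGlo luminescence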
[20] = PAX2 cell-based inhibition, dose response, selectivity assay for PAX8 inhibitor project, plate reader, dry powder samples (AID 743048); format: functional;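 further: HEK293 cells carrying a WT1 promoter luciferase reporter driven by expressed Pax2; potency is for inhibition of Pax2 driven reporter signal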
[21] = PAX5 activity inhibitors, dose response, selectivity assay for PAX8 inhibitor project, cell-based, plate reader, dry powder samples (AID 743047); format: functional;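 further: HEK293 cells carrying a Pax5 driven CD19 promoter luciferase reporter; potency of inhibitors that lower reporter luminescence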
[22] = cytotoxicity in COV434 cells, dose response, cytotoxicity control for PAX8 inhibitor project, cell-based, plate reader, dry powder, SA7 (AID 743145); format: functional
[23] = biological target: T5, Oxysterols receptor LXR-beta (Homo sapiens, UniProt P55055); format: functional, cell-based;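 further: Cell-based luminescence dose-response assay of agonist activity at LXR, run as a confirmatory counterscreen to a daf-12 agonist screen; HEK293 cells with Gal4-LXR fusion and GAL4-driven luciferase reporter; agonist potency from rising luciferase signal of a Gal4-LXR reporter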
T5 sequence (P55055 whole entry): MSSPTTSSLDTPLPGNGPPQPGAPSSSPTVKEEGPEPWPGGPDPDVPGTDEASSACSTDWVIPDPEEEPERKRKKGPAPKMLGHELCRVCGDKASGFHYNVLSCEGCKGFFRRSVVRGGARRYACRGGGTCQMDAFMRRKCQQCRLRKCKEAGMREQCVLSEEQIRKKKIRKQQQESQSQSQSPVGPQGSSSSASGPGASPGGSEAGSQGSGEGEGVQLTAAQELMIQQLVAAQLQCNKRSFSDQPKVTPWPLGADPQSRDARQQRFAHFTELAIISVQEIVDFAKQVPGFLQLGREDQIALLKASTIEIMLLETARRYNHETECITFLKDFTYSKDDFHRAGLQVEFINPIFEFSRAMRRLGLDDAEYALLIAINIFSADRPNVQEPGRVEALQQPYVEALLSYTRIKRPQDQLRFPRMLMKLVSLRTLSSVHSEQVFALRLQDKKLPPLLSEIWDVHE

cells [24] = assay: cells

Glutathione-S-transferase, sequence (Q26513 whole entry): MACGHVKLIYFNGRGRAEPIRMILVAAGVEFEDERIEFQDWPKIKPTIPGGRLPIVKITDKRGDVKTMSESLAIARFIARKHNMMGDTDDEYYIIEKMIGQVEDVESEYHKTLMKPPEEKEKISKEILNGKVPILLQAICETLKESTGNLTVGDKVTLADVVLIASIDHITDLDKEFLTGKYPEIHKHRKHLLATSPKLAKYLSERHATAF
Paired box protein Pax-8, sequence (Q06710 whole entry): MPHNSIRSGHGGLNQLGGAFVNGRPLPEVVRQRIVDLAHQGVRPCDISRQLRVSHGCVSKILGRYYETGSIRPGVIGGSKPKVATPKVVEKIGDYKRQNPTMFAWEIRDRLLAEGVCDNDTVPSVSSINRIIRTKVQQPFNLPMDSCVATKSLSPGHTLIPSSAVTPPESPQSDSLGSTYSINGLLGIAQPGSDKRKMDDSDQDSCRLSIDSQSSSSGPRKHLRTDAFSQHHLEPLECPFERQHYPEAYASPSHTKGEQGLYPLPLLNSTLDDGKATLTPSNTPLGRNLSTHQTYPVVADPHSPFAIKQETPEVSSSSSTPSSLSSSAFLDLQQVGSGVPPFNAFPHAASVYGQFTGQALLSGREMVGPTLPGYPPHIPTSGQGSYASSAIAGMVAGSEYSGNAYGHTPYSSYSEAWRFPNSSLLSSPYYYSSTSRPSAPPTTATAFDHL
Protein Tat, sequence (P04608 whole entry): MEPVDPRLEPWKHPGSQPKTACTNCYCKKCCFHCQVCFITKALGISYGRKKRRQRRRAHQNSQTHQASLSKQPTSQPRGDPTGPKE

In the case of CCCCn1cnc2cc(NCc3ccncc3)ccc21, the IC50 (Protein Tat) is reported as > 100 µM (active), the IC50 [1] is reported as > 100 µM (active) and the CC50 [2] is reported as > 40 µM (active).
With Cc1cc(C)n(-c2nc(NCCCO)c3c4c(sc3n2)CCCC4)n1 the EC50 [3] was 25.9 µM (active), the EC50 (Streptokinase A) was > 150 µM (not active) and the EC50 (Streptococcus) was > 150 µM (not active). For the same compound, the CC50 [4] was 38.6 µM (active), the CC50 [5] was > 20 µM (active) and the IC50 (cells [6]) was 5.54 µM (active). The AC50 (INS1) was 5.71 µM (active) and the IC50 [7] was 17.9 µM (active).
With OCCN1CCN(CCCN2c3ccccc3Sc3ccc(Cl)cc32)CC1 [PERPHENAZINE] the EC50 [8] was 10.4 µM (active), the EC50 [9] was 10.5 µM (active) and the IC50 (NADPH oxidase 1) was > 17 µM (not active). The IC50 (Bcl-2-related protein A1) was > 20 µM (inactive), the IC50 [10] was 13.4 µM (active) and the IC50 [11] was 16.2 µM (active). The IC50 [12] was 15.5 µM (inactive) and the IC50 [13] was 7.37 µM (inactive).
In the case of C[C@@H]1CN([C@@H](C)CO)C(=O)c2c(c3ccccc3n2C)-c2ccccc2CO[C@H]1CN(C)C(=O)Nc1cccc(Cl)c1Cl, the AC50 [14] is reported as 2.3 µM (active), the AC50 [15] is reported as 27.4 µM (active) and the AC50 [16] is reported as 1.86 µM (active). For the same compound, the AC50 [17] was 1.49 µM (active), the AC50 [18] was > 39 µM (inactive) and the AC50 [19] was 2.21 µM (active).
In the case of COc1ccccc1C#Cc1ccc([C@@H]2[C@@H](C#N)N(C(=O)C3CCCCC3)[C@H]2CO)cc1, the AC50 (Paired box protein Pax-8) is reported as 6.05 µM (active), the AC50 [20] is reported as 31.9 µM (active) and the AC50 [21] is reported as 24.2 µM (active). The AC50 [22] was > 70 µM (inactive), the AC50 [14] was 0.689 µM (active) and the AC50 [15] was 21.8 µM (active). For the same compound, the AC50 [16] was 1.37 µM (active), the AC50 [17] was 0.562 µM (active) and the AC50 [18] was > 39 µM (inactive). The AC50 [19] was 1.14 µM (active).
In the case of Cc1ccnc(NC(=O)Nc2cccc(F)c2)c1, the EC50 [23] is reported as > 67.5 µM (inactive) and the EC50 (cells [24]) is reported as > 67.5 µM (inactive).
For Cc1noc(/C=C/c2ccco2)c1S(=O)(=O)N1CCC(C(=O)NCc2ccco2)CC1, the CC50 [2] was > 40 µM (active).
